Assay results as given in patent publication US7390910B2, “Compounds for treating tumors” (priority 2003, dated 2008).

How the values were obtained:
[1] = test system: bovine microtubule-associated protein (MAP)-rich tubulin; format: biochemical; details: 0.3 uM
Description: Tubulin Polymerization Assays. For in vitro tubulin polymerization assays, bovine microtubule-associated protein (MAP)-rich tubulin, PEM buffer [80 mM Na-PIPES (pH 6.9), 1 mM MgCl2, and 1 mM EGTA], and GTP are purchased from Cytoskeleton (Denver, Colo.). MAP-rich tubulin (final concentration 1.5 mg/ml) is dissolved in cold PEM buffer containing 1 mM GTP (GPEM) and centrifuged at 12,000×g for 10 min at 4° C. The tubulin solution (100 μl/well) is added rapidly to wells of a low-volume, 96-well plate already containing duplicate aliquots (10 μl) of test compounds in GPEM. […] Control wells contained the same final concentration of DMSO (0.3%). After initiation of the reaction, absorbance at 340 nm is measured every minute for 60 min at 24° C. using a SpectraMax Plus plate reader (Molecular Devices, Sunnyvale, Calif.).

[2] = test system: KB cells; test: cells; format: cell-based; details: for inhibition at 3 µM: 3000 nM; for IC50: 3 days, SRB
Description: (§1) Cell Survival Assay: Standard Pharmacological Test Procedure. […] Compounds are incubated with cells for 3 days.

[3] = test system: KB85; test: cells; format: cell-based; details: for inhibition at 3 µM: 3000 nM; for IC50: 3 days, SRB
Description: as §1

[4] = test system: KBV1; test: cells; format: cell-based; details: for inhibition at 3 µM / IC50: Homo sapiens; for inhibition at 3 µM: KB-V1, 3000 nM; for IC50: KB-V1, 72 h, 3 days, SRB
Description: as §1

SMILES | Tubulin Polym. % inhibition at 0.3 uM [1] | inhibition at 3 µM ([2]; Homo sapiens, 72 h) [%] | inhibition at 3 µM [3] [%] | inhibition at 3 µM [4] [%] | IC50 ([2]; Homo sapiens, KB, 72 h) [nM] | IC50 ([3]; 72 h) [nM] | IC50 [4] [nM] | IC50 [2] [nM] | IC50 [3] [nM] | KBV1 % inhibition @ 3000 nM [4] [%]
CN[C@H](C(=O)N[C@H](C(=O)N(C)[C@H](/C=C(/C)S(=O)(=O)O)C(C)C)C(C)(C)C)C(C)(C)c1ccccc1 [Example 67, N,β,β-trimethyl-L-phenylalanyl-N^1-[(1S,2Z)-1-isopropyl-3-sulfobut-2-enyl]-N^1,3-dimethyl-L-valinamide] | 21% | 0 | 0 | 0 | – | – | – | – | – | –
CN[C@H](C(=O)N[C@H](C(=O)N(C)[C@H](/C=C(\C)C(=O)N1CCOCC1)C(C)C)C(C)(C)C)C(C)(C)c1cc(C)cc(C)c1 [Example 3, N,β,β,3,5-Pentamethyl-L-phenylalanyl-N^1-[(1S,2E)-1-isopropyl-3-methyl-4-morpholin-4-yl-4-oxobut-2-enyl]-N^1,3-dimethyl-L-valinamide] | 51% | – | – | – | 70 | 176 | 1760 | – | – | –
CN[C@H](C(=O)N[C@H](C(=O)N(C)[C@H](/C=C(\C)C(=O)N1C[C@H](O)C[C@H]1C(=O)O)C(C)C)C(C)(C)C)C(C)(C)c1ccccc1 [Example 42, N,β,β-trimethyl-L-phenylalanyl-N^1-{(1S,2E)-4-[(2S,4R)-2-carboxy-4-hydroxypyrrolidin-1-yl]-1-isopropyl-3-methyl-4-oxobut-2-enyl}-N^1,3-dimethyl-L-valinamide] | 96% | – | – | 0 | 184 | 1850 | – | – | – | –
CN[C@H](C(=O)N[C@H](C(=O)N(C)[C@H](/C=C(\C)C(=O)N1CCC[C@H]1C(=O)OC)C(C)C)C(C)(C)C)C(C)(C)c1ccc(C)c(C)c1 [Example 17, N,β,β,3,4-Pentamethyl-L-phenylalanyl-N^1-{(1S,2E)-4-[(2S)-2-(methoxycarbonyl)pyrrolidin-1-yl]-1-isopropyl-3-methyl-4-oxobut-2-enyl}-N^1,3-dimethyl-L-valinamide] | 71% | – | – | – | 1.9 | 15 | 363 | – | – | –
CN[C@H](C(=O)N[C@H](C(=O)N(C)[C@H](/C=C(\C)C(=O)N1CCC[C@@H]1C(=O)OC)C(C)C)C(C)(C)C)C(C)(C)c1ccccc1 [Example 41, N,β,β-trimethyl-L-phenylalanyl-N^1-{(1S,2E)-4-[(2R)-2-(methoxycarbonyl)pyrrolidin-1-yl]-1-isopropyl-3-methyl-4-oxobut-2-enyl}-N^1,3-dimethyl-L-valinamide] | 96% | – | – | – | 16 | 51 | 1100 | – | – | –
CN[C@H](C(=O)N[C@H](C(=O)N(C)[C@H](/C=C(\C)C(=O)c1ncc[nH]1)C(C)C)C(C)(C)C)C(C)(C)c1ccccc1 [Example 88, (2S)-N-[(1S,2E)-4-(1H-imidazol-2-yl)-1-isopropyl-3-methyl-4-oxobut-2-enyl]- -trimethyl-2-{[(2S)-3-methyl-2-(methylamino)-3-phenylbutanoyl]amino}butanamide] | 91% | – | – | – | – | – | – | 218 | 1360 | 0
CN[C@H](C(=O)N[C@H](C(=O)N(C)[C@H](/C=C(\C)C(=O)c1nccs1)C(C)C)C(C)(C)C)C(C)(C)c1ccccc1 [Example 73, N,β,β-trimethyl-L-phenylalanyl-N^1-[(1S,2E)-1-isopropyl-3-methyl-4-oxo-4-(1,3-thiazol-2-yl)but-2-enyl]-N^1,3-dimethyl-L-valinamide] | 33% | – | – | – | 582 | 565 | 1790 | – | – | –
CN[C@H](C(=O)N[C@H](C(=O)N(C)[C@H](/C=C/S(=O)(=O)O)C(C)C)C(C)(C)C)C(C)(C)c1ccccc1 [Example 64, N,β,β-trimethyl-L-phenylalanyl-N^1-[(1S,2E)-1-isopropyl-3-sulfoprop-2-enyl]-N^1,3-dimethyl-L-valinamide] | 86% | 2 | 1 | 0 | – | – | – | – | – | –
CN[C@@H](C(=O)N[C@H](C(=O)N(C)[C@H](/C=C(\C)C(=O)N1CCOCC1)C(C)C)C(C)(C)C)C(C)(C)c1cc(C)cc(C)c1 [Example 5, N,β,β,3,5-Pentamethyl-D-phenylalanyl-N^1-[(1S,2E)-1-isopropyl-3-methyl-4-morpholin-4-yl-4-oxobut-2-enyl]-N^1,3-dimethyl-L-valinamide] | 57% | – | – | 40 | 207 | 459 | – | – | – | –
CCOS(=O)(=O)/C=C/[C@H](C(C)C)N(C)C(=O)[C@@H](NC(=O)[C@@H](NC)C(C)(C)c1ccccc1)C(C)(C)C [Example 63, N,β,β-trimethyl-L-phenylalanyl-N^1-[(1S,2E)-3-(ethoxysulfonyl)-1-isopropylprop-2-enyl]-N^1,3-dimethyl-L-valinamide] | 42% | 1 | 0 | 0 | – | – | – | – | – | –
CN[C@H](C(=O)N[C@H](C(=O)N(C)[C@H](/C=C1/C(=O)NC(=O)N1C)C(C)C)C(C)(C)C)C(C)(C)c1ccccc1 [Example 89, N,β,β-trimethyl-L-phenylalanyl-N^1,3-dimethyl-N^1-{(1S)-2-methyl-1-[(Z)-(3-methyl-2,5-dioxoimidazolidin-4-ylidene)methyl]propyl}-L-valinamide] | 95% | – | – | – | 5.1 | 9.9 | 230 | – | – | –
CN[C@H](C(=O)N[C@H](C(=O)N(C)[C@H](/C=C(\C)C(=O)N1CCC[C@H]1C(=O)O)C(C)C)C(C)(C)C)C(C)(C)c1cccc(Cl)c1 [Example 24, 3-Chloro-N,β,β-trimethyl-L-phenylalanyl-N^1-{(1S,2E)-4-[(2S)-2-carboxypyrrolidin-1yl]-1-isopropyl-3-methyl-4-oxobut-2-enyl}-N^1,3-dimethyl-L-valinamide] | 94% | – | – | 17 | 62 | 180 | – | – | – | –
CN[C@H](C(=O)N[C@H](C(=O)N(C)[C@H](/C=C(\C)C(=O)NCc1ccc(-c2ccccc2)cc1)C(C)C)C(C)(C)C)C(C)(C)c1ccccc1 [Example 53, N,β,β-trimethyl-L-phenylalanyl-N-1-{(1S,2E)-4-[(1,1′-biphenyl-4-ylmethyl)amino]-1-isopropyl-3-methyl-4-oxobut-2-enyl}-N^1,3-dimethyl-L-valinamide] | 11% | – | – | – | – | – | – | 667 | 1680 | 29
CN[C@H](C(=O)N[C@H](C(=O)N(C)[C@H](/C=C(\C)C(=O)N1CCC[C@H]1C(=O)OC)C(C)C)C(C)(C)C)C(C)(C)c1cc(C)cc(C)c1 [Example 19, N,β,β,3,5-Pentamethyl-L-phenylalanyl-N^1-{(1S,2E)-4-[(2S)-2-(methoxycarbonyl)pyrrolidin-1-yl]-1-isopropyl-3-methyl-4-oxobut-2-enyl}-N^1,3-dimethyl-L-valinamide] | 66% | – | – | – | 5.9 | 50 | 1550 | – | – | –
C/C(=C\[C@H](C(C)C)N(C)C(=O)[C@@H](NC(=O)[C@@H]1CCCN1C)C(C)(C)C)C(=O)O [Example 62, 1-methyl-L-prolyl-N^1-[(1S,2E)-3-carboxy-1-isopropylbut-2-enyl]-N^1,3-dimethyl-L-valinamide] | 65(2) % | – | 26 | 10 | 2950 | – | – | – | – | –
CN[C@H](C(=O)N[C@H](C(=O)N(C)[C@H](/C=C1\NC(=O)NC1=O)C(C)C)C(C)(C)C)C(C)(C)c1ccccc1 [Example 85, N,β,β-trimethyl-L-phenylalanyl-N^1-{(1S)-1-[(Z)-(2,5-dioxo-4-imidazolidinylidene)methyl]-2-methylpropyl}-N^1,3-dimethyl-L-valinamide] | 59% | – | – | 10 | 1070 | 1740 | – | – | – | –
CN[C@H](C(=O)N[C@H](C(=O)N(C)[C@H](/C=C(\C)C(=O)N1CCN(Cc2ccccc2)CC1)C(C)C)C(C)(C)C)C(C)(C)c1ccccc1 [Example 39, N,β,β-trimethyl-L-phenylalanyl-N^1-[(1S,2E)-4-(4-benzylpiperazin-1-yl)-1-isopropyl-3-methyl-4-oxobut-2-enyl]-N^1,3-dimethyl-L-valinamide] | 29% | – | – | – | 15 | 22 | 366 | – | – | –
CN[C@H](C(=O)N[C@H](C(=O)N(C)[C@H](/C=C(\C)C(=O)N1CCN(Cc2ccccc2)CC1)C(C)C)C(C)(C)C)C(C)(C)c1cc(C)cc(C)c1 [Example 14, N,β,β,3,5-Pentamethyl-L-phenylalanyl-N^1-[(1S,2E)-4-(4-benzylpiperazin-1-yl)-1-isopropyl-3-methyl-4-oxobut-2-enyl]-N^1,3-dimethyl-L-valinamide] | 51(5) % | – | – | – | 45 | 135 | 1650 | – | – | –
CN[C@H](C(=O)N[C@H](C(=O)N(C)[C@H](/C=C(\C)C(=O)N1CCC[C@H]1C(=O)O)C(C)C)C(C)(C)C)C(C)(C)c1cccc(C)c1 [Example 22, N,β,β,3-Tetramethyl-L-phenylalanyl-N^1-{(1S,2E)-4-[(2S)-2-carboxypyrrolidin-1-yl]-1-isopropyl-3-methyl-4-oxobut-2-enyl}-N^1,3-dimethyl-L-valinamide] | 95% | – | – | 12 | 70 | 599 | – | – | – | –
